From US20210070748A1, “INHIBITORS OF BRUTONS TYROSINE KINASE” (Pharmacyclics LLC, priority 2015, published 2021)

Assays:
TEC = biological target: T1, TEC (Homo sapiens, UniProt P42680); experiment: Inhibition of a panel of kinases, in vitro HotSpot kinase assay: TEC; format: biochemical; details: Table 13, A compounds; 1 μM ATP
T1 sequence (P42680 1-631): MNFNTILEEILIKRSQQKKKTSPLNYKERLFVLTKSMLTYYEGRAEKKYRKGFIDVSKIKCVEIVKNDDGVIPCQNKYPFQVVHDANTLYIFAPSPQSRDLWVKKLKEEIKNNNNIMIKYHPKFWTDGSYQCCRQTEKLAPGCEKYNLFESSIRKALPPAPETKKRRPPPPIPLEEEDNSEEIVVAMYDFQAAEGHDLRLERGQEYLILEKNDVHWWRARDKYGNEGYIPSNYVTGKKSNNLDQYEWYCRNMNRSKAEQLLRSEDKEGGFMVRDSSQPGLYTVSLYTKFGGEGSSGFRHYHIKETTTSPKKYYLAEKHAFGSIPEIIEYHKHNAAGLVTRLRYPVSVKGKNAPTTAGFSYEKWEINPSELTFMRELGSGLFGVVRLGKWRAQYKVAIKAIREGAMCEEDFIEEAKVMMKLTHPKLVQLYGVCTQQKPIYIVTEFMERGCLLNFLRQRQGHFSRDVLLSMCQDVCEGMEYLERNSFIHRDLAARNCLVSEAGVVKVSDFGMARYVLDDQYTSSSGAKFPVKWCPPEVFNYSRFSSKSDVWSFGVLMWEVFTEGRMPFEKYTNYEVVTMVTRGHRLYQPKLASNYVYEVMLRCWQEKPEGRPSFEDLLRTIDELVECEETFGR
Description: (§1) The degree of inhibition of a panel of kinases is determined using the in vitro HotSpot kinase assay (purified enzymes, ^33P-ATP, an appropriate substrate and 1 μM ATP).

ITK = biological target: T2, ITK (Homo sapiens, UniProt Q08881); experiment: Inhibition of a panel of kinases, in vitro HotSpot kinase assay: ITK; format: biochemical; details: Table 13, A compounds; 1 μM ATP
T2 sequence (Q08881 1-620): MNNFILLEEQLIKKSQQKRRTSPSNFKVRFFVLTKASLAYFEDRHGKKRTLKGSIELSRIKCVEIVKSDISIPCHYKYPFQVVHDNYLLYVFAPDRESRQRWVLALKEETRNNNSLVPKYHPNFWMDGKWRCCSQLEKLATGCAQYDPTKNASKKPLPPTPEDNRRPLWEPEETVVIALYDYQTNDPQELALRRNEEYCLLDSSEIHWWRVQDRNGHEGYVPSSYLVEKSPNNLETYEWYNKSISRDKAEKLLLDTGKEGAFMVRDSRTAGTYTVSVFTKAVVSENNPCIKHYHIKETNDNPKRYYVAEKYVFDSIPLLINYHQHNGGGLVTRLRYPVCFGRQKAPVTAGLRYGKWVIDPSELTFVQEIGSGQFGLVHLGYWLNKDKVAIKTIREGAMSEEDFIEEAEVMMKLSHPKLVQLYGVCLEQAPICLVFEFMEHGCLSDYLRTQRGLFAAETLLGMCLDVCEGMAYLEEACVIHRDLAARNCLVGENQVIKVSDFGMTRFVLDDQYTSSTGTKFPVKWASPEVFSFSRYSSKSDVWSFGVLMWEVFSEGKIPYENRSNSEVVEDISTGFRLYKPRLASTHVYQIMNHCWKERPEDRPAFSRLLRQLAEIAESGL
Description: as §1

Row | SMILES | IC50 (TEC) | IC50 (ITK)
1 | CN(C)C(=O)N[C@@H]1CCCN(c2cnc(C(N)=O)c(Nc3ccc(C4(C)CCN(C5CCCC5)CC4)cc3)n2)[C@@H]1CO [Example A-101, 3-{[4-(1-cyclopentyl-4-methylpiperidin-4-yl)phenyl]amino}-5-[(2S,3R)-3-[(dimethylcarbamoyl)amino]-2-(hydroxymethyl)piperidin-1-yl]pyrazine-2-carboxamide] | 100 to 1000 nM | 1000 to 10000 nM
2 | C[C@@H]1[C@H](NC(=O)c2ccc(C3CC3)cc2F)CCCN1c1cnc(C(N)=O)c(Nc2ccc(CN3CCN(C)CC3)cc2)n1 [Example A-106, 5-[(2R,3R)-3-(4-cyclopropyl-2-fluorobenzamido)-2-methylpiperidin-1-yl]-3-({4-[(4-methylpiperazin-1-yl)meth-yl]phenyl}amino)pyrazine-2-carboxamide] | 10 to 100 nM | 100 to 1000 nM
3 | C[C@@H]1[C@H](NC(=O)c2ccc(C3CC3)cc2F)CCCN1c1cnc(C(N)=O)c(Nc2nc3c(s2)CN(C)CC3)n1 [Example A-108, 5-[(2R,3R)-3-(4-cyclopropyl-2-fluorobenzamido)-2-methylpiperidin-1-yl]-3-({5-methyl-4H,5H,6H,7H-[1,3]thiazolo[5,4-c]pyridin-2-yl}amino)pyrazine-2-carboxamide] | 100 to 1000 nM | > 10000 nM
4 | C[C@@H]1[C@H](NC(=O)c2ccc(C3CC3)cc2F)CCCN1c1cnc(C(N)=O)c(Nc2ccc(C3(C)CCN(C4CCCC4)CC3)cc2)n1 [Example A-121, 3-{[4-(1-cyclopentyl-4-methylpiperidin-4-yl)phenyl]amino}-5-[(2R,3R)-3-(4-cyclopropyl-2-fluorobenzamido)-2-methylpiperidin-1-yl]pyrazine-2-carboxamide] | ≤ 10 nM | 10 to 100 nM
5 | CC1(c2ccc(Nc3nc(N4CCC[C@@H](n5ccc6cc(C7CC7)ccc6c5=O)C4)cnc3C(N)=O)cc2)CCN(C2CCCC2)CC1 [Example A-141, 3-{[4-(1-cyclopentyl-4-methylpiperidin-4-yl)phenyl]amino}-5-[(3R)-3-(6-cyclopropyl-1-oxo-1,2-dihydroisoquinolin-2-yl)piperidin-1-yl]pyrazine-2-carboxamide] | ≤ 10 nM | 10 to 100 nM
6 | CC(C)N1CCN(c2ccc(Nc3nc(N4CCC[C@@H](NC(=O)c5ccc(C6CC6)cc5F)[C@H]4C)cnc3C(N)=O)cc2)CC1 [Example A-149, 5-[(2R,3R)-3-(4-cyclopropyl-2-fluorobenzamido)-2-methylpiperidin-1-yl]-3-({4-[4-(propan-2-yl)piperazin-1-yl]phenyl}amino)pyrazine-2-carboxamide] | 10 to 100 nM | 10 to 100 nM
7 | C[C@@H]1[C@H](NC(=O)c2ccc(C3CC3)cc2F)CCCN1c1cnc(C(N)=O)c(Nc2ccc(S(=O)(=O)N3CCN(C)CC3)cc2)n1 [Example A-156, 5-[(2R,3R)-3-(4-cyclopropyl-2-fluorobenzamido)-2-methylpiperidin-1-yl]-3-({4-[(4-methylpiperazin-1-yl)sulfonyl]phenyl}amino)pyr-azine-2-carboxamide] | 100 to 1000 nM | 100 to 1000 nM

The remaining lines, values ahead:

Row | IC50 (TEC) | IC50 (ITK) | SMILES
8 | > 10000 nM | > 10000 nM | Cc1cc(Nc2nc(N3CCC[C@@H](n4ccc5cc(C6CC6)ccc5c4=O)C3)cnc2C(N)=O)sn1 [Example A-107, 5-[(3R)-3-(6-cyclopropyl-1-oxo-1,2-dihydroisoquinolin-2-yl)piperidin-1-yl]-3-[(3-methyl-1,2-thiazol-5-yl)amino]pyrazine-2-carboxamide]
9 | 10 to 100 nM | 100 to 1000 nM | C[C@@H]1[C@H](NC(=O)c2ccc(C3CC3)cc2F)CCCN1c1cnc(C(N)=O)c(Nc2cnn(C)c2)n1 [Example A-110, 5-[(2R,3R)-3-(4-cyclopropyl-2-fluorobenzamido)-2-methylpiperidin-1-yl]-3-[(1-methyl-1H-pyrazol-4-yl)amino]pyrazine-2-carboxamide]
10 | 10 to 100 nM | 100 to 1000 nM | CN1CCN(Cc2ccc(Nc3nc(N4CCC[C@@H](n5ccc6cc(C7CC7)ccc6c5=O)C4)cnc3C(N)=O)cc2)CC1 [Example A-111, 5-[(3R)-3-(6-cyclopropyl-1-oxo-1,2-dihydroisoquinolin-2-yl)piperidin-1-yl]-3-({4-[(4-methylpiperazin-1-yl)meth-yl]phenyl}amino)pyrazine-2-carboxamide]
11 | 10 to 100 nM | 100 to 1000 nM | CN1CCN(C(=O)c2ccc(Nc3nc(N4CCC[C@@H](n5ccc6cc(C7CC7)ccc6c5=O)C4)cnc3C(N)=O)cc2)CC1 [Example A-115, 5-[(3R)-3-(6-cyclo-propyl-1-oxo-1,2-dihydroisoquinolin-2-yl)piperidin-1-yl]-3-{[4-(4-methylpiperazine-1-carbonyl)phenyl]amino}pyr-azine-2-carboxamide]
12 | 10 to 100 nM | 100 to 1000 nM | C[C@@H]1[C@H](NC(=O)c2ccc(C3CC3)cc2F)CCCN1c1cnc(C(N)=O)c(Nc2ccc(C(=O)N3CCN(C)CC3)cc2)n1 [Example A-122, 5-[(2R,3R)-3-(4-cyclopropyl-2-fluorobenzamido)-2-methylpiperidin-1-yl]-3-{[4-(4-methylpiperazine-1-carbonyl)phenyl]amino}pyr-azine-2-carboxamide]
13 | 10 to 100 nM | 100 to 1000 nM | C[C@@H]1[C@H](NC(=O)c2ccc(C3CC3)cc2F)CCCN1c1cnc(C(N)=O)c(Nc2ccc(N3CCN(C4CCCC4)CC3)cc2)n1 [Example A-125, 3-{[4-(4-cyclopentylpiperazin-1-yl)phenyl]amino}-5-[(2R,3R)-3-(4-cyclopropyl-2-fluorobenzamido)-2-methylpiperidin-1-yl]pyrazine-2-carboxamide]
14 | 100 to 1000 nM | 1000 to 10000 nM | C[C@@H]1[C@H](NC(=O)c2ccc(C3CC3)cc2F)CCCN1c1cnc(C(N)=O)c(Nc2cnn(C)c2)c1 [Example A-127, 5-[(2R,3R)-3-(4-cyclopropyl-2-fluorobenzamido)-2-methylpiperidin-1-yl]-3-[(1-methyl-1H-pyrazol-4-yl)amino]pyridine-2-carboxamide]
15 | 10 to 100 nM | 100 to 1000 nM | C[C@@H]1[C@H](NC(=O)c2ccc(C3CC3)cc2F)CCCN1c1cnc(C(N)=O)c(Nc2cc(CN3CCOCC3)ns2)n1 [Example A-128, 5-[(2R,3R)-3-(4-cyclopropyl-2-fluorobenzamido)-2-methylpiperidin-1-yl]-3-{[3-(morpholin-4-ylmethyl)-1,2-thiazol-5-yl]amino}pyrazine-2-carboxamide]
16 | 10 to 100 nM | 100 to 1000 nM | CN1CCN(c2ccc(Nc3nc(N4CCC[C@@H](n5ccc6cc(C7CC7)cc(F)c6c5=O)C4)cnc3C(N)=O)cc2)CC1 [Example A-133, 5-[(3R)-3-(6-cyclo-propyl-8-fluoro-1-oxo-1,2-dihydroisoquinolin-2-yl)piperidin-1-yl]-3-{[4-(4-methylpiperazin-1-yl)phenyl]amino}pyrazine-2-carboxamide]
17 | 10 to 100 nM | 100 to 1000 nM | C[C@@H]1[C@H](n2ccc3cc(C4CC4)ccc3c2=O)CCCN1c1cnc(C(N)=O)c(Nc2ccc(N3CCN(C)CC3)cc2)n1 [Example A-140, 5-[(2R,3R)-3-(6-cyclopropyl-1-oxo-1,2-dihydro-isoquinolin-2-yl)-2-methylpiperidin-1-yl]-3-{[4-(4-methylpiperazin-1-yl)phenyl]amino}pyrazine-2-carboxamide]
